Results from US20240156764A1, “INHIBITION OF URACIL DNA GLYCOSYLASE IN THE OPEN CONFORMATION” (CASE WESTERN RESERVE UNIVERSITY, priority 2022, published 2024).

Target: human UDG (Homo sapiens, UniProt P13051)
Test: Microscale thermophoresis (MST) binding
Parameters: Bacterially expressed and purified full-length human UDG; made in house
Method: The data for thermophoresis was recorded at 20° C. using the blue LED at 20% and IR-Laser at 40%. The isotherm derived from the raw data and fitted according to the law of mass action. […] Then 2 μL of 10× Sypro dye and 2 μL of ddH20 (Applied biosystems cat #4461141) were added. Monitoring of fluorescence took place for 2 hr (Bioraid CFX96, Hex filter, 25-97° C., 1.6° C./2 min). Negative (−) derivative RFU raw data and plots from the machine were obtained and analyzed. […] Melting temperature (Tm) value was taken directly from the midpoint on the −dRFU/dt vs. temperature graph. Each point on the graph represents an average of three data sets. Y error bars represent the standard deviation.
Bacterially expressed and purified full-length human UDG was fluorescently labeled with Atto488 NHS ester according to the manufacturer's protocol. […] The samples were loaded into silica premium capillaries (Polymicro Technologies) after incubation at room temperature for 15 min measurements were performed at 20° C., by using 20% LED power and 40% IR-laser power. Measurements were also carried out on 40 and 60% IR-Laser power for comparison. The raw data were exported to GraphPad Prism8 software, KD value was obtained by data fitting with a one-site specific binding model.

human UDG, sequence (P13051 whole entry): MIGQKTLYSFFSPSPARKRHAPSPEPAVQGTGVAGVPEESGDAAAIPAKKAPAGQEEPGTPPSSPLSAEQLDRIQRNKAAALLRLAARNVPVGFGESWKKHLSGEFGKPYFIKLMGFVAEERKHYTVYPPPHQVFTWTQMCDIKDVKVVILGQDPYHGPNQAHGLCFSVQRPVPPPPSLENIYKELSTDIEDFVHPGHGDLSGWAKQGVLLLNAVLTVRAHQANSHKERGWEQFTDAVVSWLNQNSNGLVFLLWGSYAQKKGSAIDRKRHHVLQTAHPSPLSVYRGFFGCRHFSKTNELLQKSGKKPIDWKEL

SMILES: N.N.N.O=C(O)C1=CC(=C(c2ccc(O)c(C(=O)O)c2)c2ccc(O)c(C(=O)O)c2)C=CC1=O [ATA NH4 salt]
- Kd (MST, 100 nM labelled UDG, estimated, read-out: binding dissociation constant (KD)): < 700 nM
- direct binding to the purified human UDG protein (more soluble ATA NH4 salt form): significant improvement in direct binding
